Assay: recombinant UMI read abundance after kanamycin selection (control-corrected) (log10(CPM+1)); higher = more efficient recombination; extreme values may be limits of the assay; sequences stand for … in AGTGCAGAGAAAATCGGCCAGTTTTCTCTGCCTGCAGTCCGCATGCCGTGGGACCCCTTGGGTTCTAACCTGTTGCCTAGATTTATGCAGCGGACTGCCTTTCTCCCAAAGTGATAAACCGG…AGGTTGGTTTCACT; site = the 11-nt donor
Outline: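 Pooled Escherichia coli screen of donor and donor-binding-loop pairs for the IS621 bridge recombinase. Each pair sits with a 12-nt UMI on a plasmid carrying a promoterless kanamycin gene. The library was co-electroporated with a target plasmid encoding a fixed target and T7-inducible recombinase, then plated with IPTG (0.07 mM) plus kanamycin, or unselected, each in two replicates. Recombinant UMIs were PCR-amplified across the donor–target junction and sequenced. Counts became CPM, averaged over replicates, scaled by control-derived factors and reported as log10(CPM+1).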
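Further: IS621 bridge recombinase in Escherichia coli cells against a fixed T5 target plasmid.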

Sequence	recombinant UMI read abundance (log10)
TATTTCGCATGGACCGGTTTTCCCGGTAATCCGTATTTGTG (site TATTTTGCTCA)	0.00403
TATTTGCCATGGACCGGTTTTCCCGGTAATCCGTATTTGTG (site TATTTGACTCA)	0.0205
TATTTGCCATGGACCGGTTTTCCCGGTAATCCGTATTTGTG (site TATTTGCCTCA)	0.0197
TATTTGCCATGGACCGGTTTTCCCGGTAATCCGTATTTGTG (site TATTTGGCTCA)	0.00691
TATTTGCCATGGACCGGTTTTCCCGGTAATCCGTATTTGTG (site TATTTGTCTCA)	0.0226
TATTTGGCATGGACCGGTTTTCCCGGTAATCCGTATTTGAG (site TATTTGGCTCA)	0.0138
TATTTGGCATGGACCGGTTTTCCCGGTAATCCGTATTTGAG (site TATTTGGCTCC)	0.00558
TATTTGGCATGGACCGGTTTTCCCGGTAATCCGTATTTGAG (site TATTTGGCTCG)	0.012
TATTTGGCATGGACCGGTTTTCCCGGTAATCCGTATTTGAG (site TATTTGGCTCT)	0.00868
TATTTGGCATGGACCGGTTTTCCCGGTAATCCGTATTTGTA (site TATTTGGCTAA)	0.00533
TATTTGGCATGGACCGGTTTTCCCGGTAATCCGTATTTGTA (site TATTTGGCTCA)	0.0148
TATTTGGCATGGACCGGTTTTCCCGGTAATCCGTATTTGTA (site TATTTGGCTGA)	0
TATTTGGCATGGACCGGTTTTCCCGGTAATCCGTATTTGTA (site TATTTGGCTTA)	0.00725
TATTTGGCATGGACCGGTTTTCCCGGTAATCCGTATTTGTT (site TATTTGGCTAA)	0.17
TATTTGGCATGGACCGGTTTTCCCGGTAATCCGTATTTGTT (site TATTTGGCTCA)	0.0085
TATTTGGCATGGACCGGTTTTCCCGGTAATCCGTATTTGTT (site TATTTGGCTGA)	0
TATTTGGCATGGACCGGTTTTCCCGGTAATCCGTATTTGTT (site TATTTGGCTTA)	0
TCAAATGCATGGACCGGTTTTCCCGGTAATCCGTATTTGCC (site TCAAATGCTGG)	0
TCAAGGACATGGACCGGTTTTCCCGGTAATCCGTATTTGCA (site TCAAGGACTTG)	1.86
TCAAGGCCATGGACCGGTTTTCCCGGTAATCCGTATTTGGT (site TCAAGGCCTAC)	0.00348
TCACCGACATGGACCGGTTTTCCCGGTAATCCGTATTTGGA (site TCACCGACTTC)	0.0438
TCACGCCCATGGACCGGTTTTCCCGGTAATCCGTATTTGCT (site TCACGCCCTAG)	2.1
TCAGAGACATGGACCGGTTTTCCCGGTAATCCGTATTTGTG (site TCAGAGACTCA)	1.03
TCAGAGACATGGACCGGTTTTCCCGGTAATCCGTATTTGTG (site TCAGAGACTCC)	0.353
TCAGAGACATGGACCGGTTTTCCCGGTAATCCGTATTTGTG (site TCAGAGACTCG)	1.44

Sequence	recombinant UMI read abundance (log10)
TCAGAGACATGGACCGGTTTTCCCGGTAATCCGTATTTGTG (site TCAGAGACTCT)	0.205
TCAGAGCCATGGACCGGTTTTCCCGGTAATCCGTATTTGCG (site TCAGAGACTCG)	0.00993
TCAGAGCCATGGACCGGTTTTCCCGGTAATCCGTATTTGCG (site TCAGAGCCTCG)	0.295
TCAGAGCCATGGACCGGTTTTCCCGGTAATCCGTATTTGCG (site TCAGAGGCTCG)	0.00861
TCAGAGCCATGGACCGGTTTTCCCGGTAATCCGTATTTGCG (site TCAGAGTCTCG)	2.36
TCAGAGTCATGGACCGGTTTTCCCGGTAATCCGTATTTGCG (site TCAGAGACTCG)	0.877
TCAGAGTCATGGACCGGTTTTCCCGGTAATCCGTATTTGCG (site TCAGAGCCTCG)	0.625
TCAGAGTCATGGACCGGTTTTCCCGGTAATCCGTATTTGCG (site TCAGAGGCTCG)	0.0319
TCAGAGTCATGGACCGGTTTTCCCGGTAATCCGTATTTGCG (site TCAGAGTCTCG)	3
TCAGTACCATGGACCGGTTTTCCCGGTAATCCGTATTTGTG (site TCAGTACCTCA)	0.023
TCAGTAGCATGGACCGGTTTTCCCGGTAATCCGTATTTGAT (site TCAGTAGCTAT)	2.12
TCAGTATCATGGACCGGTTTTCCCGGTAATCCGTATTTGCG (site ACAGTATCTTG)	0
TCAGTATCATGGACCGGTTTTCCCGGTAATCCGTATTTGCG (site TCAGTATCTCG)	1.85
TCAGTCCCATGGACCGGTTTTCCCGGTAATCCGTATTTGGT (site TCAGTCCCTAC)	0
TCATAGACATGGACCGGTTTTCCCGGTAATCCGTATTTGCG (site TCAAAGACTCG)	0.629
TCATAGACATGGACCGGTTTTCCCGGTAATCCGTATTTGCG (site TCACAGACTCG)	0.285
TCATAGACATGGACCGGTTTTCCCGGTAATCCGTATTTGCG (site TCAGAGACTCG)	0.00296
TCATAGACATGGACCGGTTTTCCCGGTAATCCGTATTTGCG (site TCATAGACTCG)	1.87
TCATAGACATGGACCGGTTTTCCCGGTAATCCGTATTTGGA (site TCATAGACTTC)	0.712
TCATCAGCATGGACCGGTTTTCCCGGTAATCCGTATTTGAT (site TCATCAGCTAT)	0.316
TCATCTCCATGGACCGGTTTTCCCGGTAATCCGTATTTGTC (site TCATCTCCTGA)	0
TCATGATCATGGACCGGTTTTCCCGGTAATCCGTATTTGCC (site TCATGATCTGG)	0.807
TCATGATCATGGACCGGTTTTCCCGGTAATCCGTATTTGGA (site TCATGATCTTC)	1.32
TCCAACCCATGGACCGGTTTTCCCGGTAATCCGTATTTGCC (site TCCAACCCTGG)	0
TCCAACGCATGGACCGGTTTTCCCGGTAATCCGTATTTGAT (site TCCAACGCTAT)	0

Sequence	recombinant UMI read abundance (log10)
TCCACACCATGGACCGGTTTTCCCGGTAATCCGTATTTGAG (site TCCACACCTCT)	0.0221
TCCACAGCATGGACCGGTTTTCCCGGTAATCCGTATTTGCG (site TCCACAGCTCG)	0
TCCACAGCATGGACCGGTTTTCCCGGTAATCCGTATTTGCG (site TCCACCGCTCG)	0.00793
TCCACAGCATGGACCGGTTTTCCCGGTAATCCGTATTTGCG (site TCCACGGCTCG)	0.0203
TCCACAGCATGGACCGGTTTTCCCGGTAATCCGTATTTGCG (site TCCACTGCTCG)	0.0252
TCCACCCCATGGACCGGTTTTCCCGGTAATCCGTATTTGCG (site TCCACCACTCG)	0.00655
TCCACCCCATGGACCGGTTTTCCCGGTAATCCGTATTTGCG (site TCCACCCCTCG)	0.0148
TCCACCCCATGGACCGGTTTTCCCGGTAATCCGTATTTGCG (site TCCACCGCTCG)	0.0184
TCCACCCCATGGACCGGTTTTCCCGGTAATCCGTATTTGCG (site TCCACCTCTCG)	0.00748
TCCACCGCATGGACCGGTTTTCCCGGTAATCCGTATTTGAG (site TCCACCGCTCA)	0.0207
TCCACCGCATGGACCGGTTTTCCCGGTAATCCGTATTTGAG (site TCCACCGCTCC)	0.0231
TCCACCGCATGGACCGGTTTTCCCGGTAATCCGTATTTGAG (site TCCACCGCTCG)	0.0211
TCCACCGCATGGACCGGTTTTCCCGGTAATCCGTATTTGAG (site TCCACCGCTCT)	0.0235
TCCACCGCATGGACCGGTTTTCCCGGTAATCCGTATTTGCA (site TCCACCGCTAG)	0.00852
TCCACCGCATGGACCGGTTTTCCCGGTAATCCGTATTTGCA (site TCCACCGCTCG)	0
TCCACCGCATGGACCGGTTTTCCCGGTAATCCGTATTTGCA (site TCCACCGCTGG)	0
TCCACCGCATGGACCGGTTTTCCCGGTAATCCGTATTTGCA (site TCCACCGCTTG)	0.167
TCCACCGCATGGACCGGTTTTCCCGGTAATCCGTATTTGTG (site TCCACCGCTCA)	0.0465
TCCACCGCATGGACCGGTTTTCCCGGTAATCCGTATTTGTG (site TCCACCGCTCC)	0.00628
TCCACCGCATGGACCGGTTTTCCCGGTAATCCGTATTTGTG (site TCCACCGCTCG)	0.00762
TCCACCGCATGGACCGGTTTTCCCGGTAATCCGTATTTGTG (site TCCACCGCTCT)	0.0682
TCCACTGCATGGACCGGTTTTCCCGGTAATCCGTATTTGCG (site TCCACAGCTCG)	0
TCCACTGCATGGACCGGTTTTCCCGGTAATCCGTATTTGCG (site TCCACCGCTCG)	0
TCCACTGCATGGACCGGTTTTCCCGGTAATCCGTATTTGCG (site TCCACGGCTCG)	0.00658
TCCACTGCATGGACCGGTTTTCCCGGTAATCCGTATTTGCG (site TCCACTGCTCG)	0.0111
